Measured values: patent publication US10221129B2, “Inhibitors of human immunodeficiency virus replication” (ViiV HEALTHCARE UK (NO.5) LIMITED, priority 2015, dated 2019)
pEC50: −log10 of the molar value.

Experiments:
[1] = Compound cytotoxicity, XTT-based colorimetric assay; type: cell-based; settings: human, uninfected MT2 cells, day 4, XTT
Method in brief: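 Run under the antiviral-assay protocol but without virus. Viability was read on day 4 and CC50 values were derived from the readout.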

[2] = test system: recombinant NL4-3 virus (nef section replaced with Renilla luciferase gene) in MT-2 cells; test: HIV cell culture assay (antiviral activity, luciferase readout); type: cell-based
Method in brief: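 Serial compound dilutions tested in MT-2 cells infected for 4-5 days with 293T-derived NL4-3 virus carrying Renilla luciferase in place of part of nef. Antiviral activity quantified as luciferase activity, read with a live-cell substrate.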

[3] = Renilla, NL43, MT-2 cells infected for 4-5 days with recombinant NL4-3 Renilla luciferase virus

Row | Structure (SMILES) | CC50 at 4 days [1] [nM] | pEC50 [2, 3] | pEC50 ([2]; MT-2 cells infected for 4-5 days with recombinant NL4-3 Renilla luciferase virus)
1 | COc1ccc(N(C)C(=O)[C@H](Cc2ccccc2)NC(=O)NS(=O)(=O)NC(C)c2cccnc2)cc1 (stereo partly shown) [JB-65] | > 100000 | 6.21 | 
2 | CN(C(=O)[C@H](Cc1cc(F)cc(F)c1)NC(=O)NS(=O)(=O)N1CCCC1c1ccccn1)c1ccc2scnc2c1 (single isomer, unassigned) [VN-1] | > 100000 |  | 5.61
3 | COc1ccc(N(C)C(=O)[C@H](Cc2ccccc2)NC(=O)NS(=O)(=O)Nc2ccc(S(=O)(=O)N3CCCC3)cc2)cc1 [CA-43] | > 100000 | 6.52 | 
4 | COc1ccc(N(C)C(=O)[C@H](Cc2ccccc2)NC(=O)NS(=O)(=O)Nc2ccc(C(C)(C)C)cc2)cc1 [CA-20] | > 100000 | 7.40 | 
5 | CN(C(=O)[C@H](Cc1cc(F)cc(F)c1)NC(=O)NS(=O)(=O)N1CCc2cccnc21)c1ccc2c(c1)OCCO2 [ZY-24] | 53400 | 7.22 | 
6 | CC(C)Oc1ccc(N(C)C(=O)[C@H](Cc2cc(F)cc(F)c2)NC(=O)NS(=O)(=O)N2CCc3cccnc32)cn1 [BB-12] | 94900 | 7.70 | 
7 | COc1ccc(N(C)C(=O)[C@H](Cc2ccccc2)NC(=O)NS(=O)(=O)n2ncc3c(Cl)nc(Cl)cc32)cc1 [CA-66] | > 100000 | 4.84 | 
8 | CN(C(=O)[C@H](Cc1cc(F)cc(F)c1)NC(=O)NS(=O)(=O)N1CCc2cc(Br)cnc21)c1ccc2scnc2c1 [ZY-21] | > 100000 | 6.31 | 
9 | Cc1cc(N(C)C(=O)[C@H](Cc2cc(F)cc(F)c2)NC(=O)NS(=O)(=O)N2CCc3cccnc32)ccc1Cl [BB-16] | 56300 | 7.52 | 
10 | COC1CN(S(=O)(=O)NC(=O)N[C@@H](Cc2cc(F)cc(F)c2)C(=O)N(C)c2ccc3scnc3c2)C1 [CA-128] | > 100000 | 7.00 | 
11 | CN(C(=O)[C@H](Cc1cc(F)cc(F)c1)NC(=O)NS(=O)(=O)N1CCc2cccnc21)c1ccc2scnc2c1F [GW-22] | > 100000 | 8.00 | 
12 | CN(C(=O)[C@H](Cc1cc(F)cc(F)c1)NC(=O)NS(=O)(=O)n1ccc2nccnc21)c1ccc2scnc2c1 [ZY-18] | > 100000 | 6.82 | 
13 | COc1ccc(N(C)C(=O)[C@H](Cc2ccccc2)NC(=O)NS(=O)(=O)N2CCc3ccccc32)cc1 [JB-1] | > 100000 | 6.96 | 
14 | COc1ccc(N(C)C(=O)[C@H](Cc2ccccc2)NC(=O)NS(=O)(=O)N(C)C(c2ccccc2)c2ccccc2)cc1 [JB-40] | 66500 | 5.54 | 
15 | COc1ccc(N(C)C(=O)[C@H](Cc2cc(F)cc(F)c2)NC(=O)NS(=O)(=O)N2CCC[C@H]2C(=O)N(C)C)cc1 [BB-21] | > 100000 | 6.12 | 
16 | CCCc1ccc(N(C)C(=O)[C@H](Cc2cc(F)cc(F)c2)NC(=O)NS(=O)(=O)N2CCc3cccnc32)cc1 [BB-11] | 66300 | 8.00 | 
17 | COc1ccc(N(C)C(=O)[C@H](Cc2cc(F)cc(F)c2)NC(=O)NS(=O)(=O)N2CCc3cccnc32)cn1 [GW-11] | > 100000 | 7.05 | 
18 | COc1ccc(N(C)C(=O)[C@H](Cc2ccccc2)NC(=O)NS(=O)(=O)Nc2cccnc2)cc1 [JB-21] | > 100000 | 5.75 | 
19 | COC(=O)Nc1ccc(NS(=O)(=O)NC(=O)N[C@@H](Cc2ccccc2)C(=O)N(C)c2ccc(OC)cc2)cc1 [JB-62] | > 100000 | 6.54 | 

Row | Structure (SMILES) | CC50 at 4 days [1] [nM] | pEC50 [2, 3] | pEC50 ([2]; MT-2 cells infected for 4-5 days with recombinant NL4-3 Renilla luciferase virus)
20 | CN(C(=O)[C@H](Cc1cc(F)cc(F)c1)NC(=O)NS(=O)(=O)n1ncc2c(Cl)cccc21)c1ccc2scnc2c1 [ZY-19] | > 33300 | 6.44 | 
21 | COc1ccc(N(C)C(=O)[C@H](Cc2ccccc2)NC(=O)NS(=O)(=O)N(c2ccccc2)C(C)C)cc1 [CA-25] | > 33300 | 6.00 | 
22 | COc1ccc(N(C)C(=O)[C@H](Cc2ccccc2)NC(=O)NS(=O)(=O)Nc2ccc(Cl)c(Cl)c2)cc1 [CA-12] | > 33300 | 7.05 | 
23 | COc1ccc(N(C)C(=O)[C@H](Cc2cc(F)cc(F)c2)NC(=O)NS(=O)(=O)N2CCCCC2)cc1F [AW-4] | > 100000 | 6.32 | 
24 | COc1ccc(N(C)C(=O)[C@H](Cc2cc(F)cc(F)c2)NC(=O)NS(=O)(=O)N2CCc3ccncc32)cc1 [BB-10] | > 100000 | 5.97 | 
25 | COc1ccc(N(C)C(=O)[C@H](Cc2ccccc2)NC(=O)NS(=O)(=O)Nc2cccc(F)c2)cc1 [CA-10] | > 100000 | 7.15 | 
26 | CN(C(=O)[C@H](Cc1cc(F)cc(F)c1)NC(=O)NS(=O)(=O)N1CCc2cccnc21)c1ccc2sc(=O)n(C)c2c1 [GW-19] | > 100000 | 7.22 | 
27 | COc1ccc(N(C)C(=O)[C@H](Cc2ccccc2)NC(=O)NS(=O)(=O)Nc2cccc(C)c2)cc1 [JB-24] | > 100000 | 7.00 | 
28 | COc1ccc(N(C)C(=O)[C@H](Cc2ccccc2)NC(=O)NS(=O)(=O)N(C)c2ccccc2OC)cc1 [JB-23] | > 100000 | 6.06 | 
29 | CN(C(=O)[C@H](Cc1cc(F)cc(F)c1)NC(=O)NS(=O)(=O)NCC(C)(C)C)c1ccc2scnc2c1 [CA-143] | > 100000 | 7.30 | 
30 | CN(C(=O)[C@H](Cc1cc(F)cc(F)c1)NC(=O)NS(=O)(=O)N(C)C)c1ccc2scnc2c1 [VN-16] | > 100000 | 7.52 | 
31 | CN(C(=O)[C@H](Cc1cc(F)cc(F)c1)NC(=O)NS(=O)(=O)N1CCc2cccnc21)c1ccc(=O)n(C)c1 [BB-1] | > 100000 | 4.96 | 
32 | COc1ccc(N(C)C(=O)[C@H](Cc2ccccc2)NC(=O)NS(=O)(=O)Nc2ccccc2-c2ccccc2)cc1 [CA-31] | > 33300 | 5.93 | 
33 | CN(C(=O)[C@H](Cc1cc(F)cc(F)c1)NC(=O)NS(=O)(=O)N1CC[C@H](O)C1)c1ccc2scnc2c1 [VN-26] | 20000 | 6.96 | 
34 | CCc1ccc(CN(C)S(=O)(=O)NC(=O)N[C@@H](Cc2ccccc2)C(=O)N(C)c2ccc(OC)cc2)cc1 [JB-41] | > 33300 | 5.30 | 
35 | COc1ccc(N(C)C(=O)[C@H](Cc2ccccc2)NC(=O)NS(=O)(=O)N2CCc3cc(Cl)cc(Cl)c32)cc1 [CA-3] | > 100000 | 5.24 | 
36 | CN(C(=O)[C@H](Cc1cc(F)cc(F)c1)NC(=O)NS(=O)(=O)N1CCC(O)CC1)c1ccc2scnc2c1 [CA-155] | > 100000 | 6.70 | 
37 | COc1ccc(N(C)C(=O)[C@H](Cc2cc(F)cc(F)c2)NC(=O)NS(=O)(=O)N2CCc3c(Cl)ccnc32)cc1 [BB-4] | 61900 | 6.38 | 
38 | CN(C(=O)[C@H](Cc1cc(F)cc(F)c1)NC(=O)NS(=O)(=O)n1ccc2cccnc21)c1ccc2scnc2c1 [VN-8] | > 100000 | 7.30 | 

Row | Structure (SMILES) | CC50 at 4 days [1] [nM] | pEC50 [2, 3] | pEC50 ([2]; MT-2 cells infected for 4-5 days with recombinant NL4-3 Renilla luciferase virus)
39 | COc1ccc(N(C)C(=O)[C@H](Cc2ccccc2)NC(=O)NS(=O)(=O)N2CC(c3ccccc3)C2)cc1 [JB-8] | > 100000 | 5.57 | 
40 | COc1ccc(N(C)C(=O)[C@H](Cc2ccccc2)NC(=O)NS(=O)(=O)N(C)C)cc1 [JB-15] | > 100000 | 5.72 | 
41 | COCCNS(=O)(=O)NC(=O)N[C@@H](Cc1cc(F)cc(F)c1)C(=O)N(C)c1ccc2scnc2c1 [CA-153] | 9000 | 6.82 | 
42 | CN(C(=O)[C@H](Cc1cc(F)cc(F)c1)NC(=O)NS(=O)(=O)N1CCc2cccnc21)c1ccc2sc(=O)[nH]c2c1 [GW-5] | > 100000 | 6.49 | 
43 | COc1ccc(N(C)C(=O)[C@H](Cc2ccccc2)NC(=O)NS(=O)(=O)Nc2ccc(-c3cnco3)cc2)cc1 [CA-38] | > 100000 | 6.60 | 
44 | Cc1nc2c(F)c(N(C)C(=O)[C@H](Cc3cc(F)cc(F)c3)NC(=O)NS(=O)(=O)N3CCc4cccnc43)ccc2s1 [GW-21] | > 100000 | 7.10 | 
45 | CN(C(=O)[C@H](Cc1cc(F)cc(F)c1)NC(=O)NS(=O)(=O)N1CCc2cccnc21)c1cccnc1 [GW-18] | > 100000 | 6.74 | 
46 | COc1ccc(N(C)C(=O)[C@H](Cc2ccccc2)NC(=O)NS(=O)(=O)Nc2ccc(OC(C)C)cc2)cc1 [CA-40] | > 100000 | 6.66 | 
47 | COc1ccc(N(C)C(=O)[C@H](Cc2ccccc2)NC(=O)NS(=O)(=O)n2ccc3cccnc32)cc1 [JB-77] | > 100000 | 6.35 | 
48 | Cc1ccc(N(C)C(=O)[C@H](Cc2cc(F)cc(F)c2)NC(=O)NS(=O)(=O)N2CCc3cccnc32)cc1Cl [BB-20] | 60700 | 7.22 | 
49 | Cc1cc(N(C)C(=O)[C@H](Cc2cc(F)cc(F)c2)NC(=O)NS(=O)(=O)N2CCc3cccnc32)cnc1C [GW-20] | > 100000 | 6.64 | 
50 | COc1ccc(N(C)C(=O)[C@H](Cc2ccccc2)NC(=O)NS(=O)(=O)Nc2ccc(C(C)=O)cc2)cc1 [CA-19] | > 100000 | 6.92 | 
51 | COc1ccc(N(C)C(=O)[C@H](Cc2ccccc2)NC(=O)NS(=O)(=O)N(C)c2cccc(C)c2)cc1 [JB-25] | > 100000 | 7.10 | 
52 | COc1ccc(N(C)C(=O)[C@H](Cc2ccccc2)NC(=O)NS(=O)(=O)Nc2ccccc2Oc2ccccc2)cc1 [CA-33] | > 33300 | 5.69 | 
53 | COc1cncc(N(C)C(=O)[C@H](Cc2cc(F)cc(F)c2)NC(=O)NS(=O)(=O)N2CCc3cccnc32)c1 [BB-19] | > 100000 | 5.49 | 
54 | COc1ccc(N(C)C(=O)[C@H](Cc2ccccc2)NC(=O)NS(=O)(=O)n2c(C)cc3ccc(OC)cc32)cc1 [CA-64] | 62400 | 6.36 | 
55 | CCN(CC)S(=O)(=O)NC(=O)N[C@@H](Cc1cc(F)cc(F)c1)C(=O)N(C)c1ccc2scnc2c1 [VN-21] | > 33300 | 7.70 | 
56 | CN(C(=O)[C@H](Cc1cc(F)cc(F)c1)NC(=O)NS(=O)(=O)N1CCc2cccnc21)c1ccc(OC(F)(F)F)cc1 [GW-7] | 16800 | 7.52 | 
